Source: patent publication US20250154193A1, “STEROID COMPOUND, AND PREPARATION METHOD THEREFOR AND APPLICATION THEREOF” (CHOLESGEN (SHANGHAI) CO., LTD., priority 2022, published 2025)

system: SREBP pathway; assay: SREBP luciferase reporter gene system (SRE-luciferase assay) in Huh-7/SRE-Luc cells; assay type: cell-based; conditions: Homo sapiens, sterol-deficient medium, compound treatment 16 hours, luciferase/GFP ratio
Protocol: Huh-7/SRE-Luc, a human hepatocellular carcinoma cell line, was grown in a culture medium containing DMEM, 10% fetal bovine serum, 100 units/mL penicillin, 100 µg/mL streptomycin, and 200 μg/mL G418.
The Huh-7/SRE-Luc cell line is a human hepatocellular carcinoma cell line Huh-7 stably expressing LDLR promoter-luciferase and green fluorescent protein (GFP). The LDLR promoter region contains a sterol regulatory element (SRE) that can effectively and sensitively respond to the regulation of the transcription factor SREBP. The GFP signal serves as an internal reference to indicate changes in cell number. Therefore, this cell line can be used to screen for active small molecules that regulate the SREBP signaling pathway. […] Cells were incubated in a sterol-deficient medium (5% lipoprotein-deficient serum, 2 μM Lovastatin, 10 μM mevalonate) and treated with corresponding concentrations of compounds for 16 hours. After compound treatment, the cells were lysed with lysis buffer (E397A, Promega), followed by the addition of luciferase substrate (E1500, Promega). The SRE-driven luciferase activity was measured using a BioTek Synergy HTX microplate reader (including but not limited to this type of instrument). The fluorescence intensity of enhanced green fluorescent protein (EGFP) was also measured using the BioTek microplate reader (including but not limited to this type of instrument) and used as an internal reference. The ratio of SRE-driven luciferase activity to GFP fluorescence intensity was used as an indicator of SREBP pathway activity. The test data of each test compound was analyzed using Prism software to obtain the IC50 parameter of the compound.
The inhibitory effect of the compounds of the present disclosure on the SREBP pathway was tested by the method of bioassay example 2. The concentration gradient of each compound was designed as 0.01, 0.03, 0.1, 0.3, 1.0, 3.0, and […], with DMSO as a vehicle control.

First: C[C@H](CCCC(C)(C)O)[C@H]1CC[C@H]2[C@@H]3CC[C@]4(O)[C@@H](O)[C@@H](O)CC[C@]4(C)[C@H]3CC[C@]12C (single isomer, unassigned) [compound 248, cholest-3β,4,5,25-tetraol]
Second: C[C@H](CCCC(C)(C)O)[C@H]1CC[C@H]2[C@@H]3CC(O)C4(O)C[C@@H](O)CC[C@]4(C)[C@H]3CC[C@]12C (stereo partly drawn) [compound 207, cholest-3β,5,6,25-tetraol]
The IC50 of the first is 4-fold lower: 0.766 µM for the first, 3.09 µM for the second. The first is the more potent here.

Going from `C[C@H](CCC[C@H](O)c1ccccc1F)[C@H]1CC[C@H]2[C@@H]3CC[C@H]4[C@@H](O)[C@@H](O)CC[C@]4(C)[C@H]3CC[C@]12C` (single isomer, unassigned) [compound 280, 24-[R-(2-fluorophenyl)(hydroxy)methyl]-5α-cholan-30,40-diol or 24-[S-(2-fluorophenyl)(hydroxy)methyl]-5α-cholan-30,40-diol] to `C[C@H](CCCC(O)c1ccccc1F)[C@H]1CC[C@H]2[C@@H]3CC[C@H]4[C@@H](O)[C@@H](O)CC[C@]4(C)[C@H]3CC[C@]12C` (stereo partly shown) [compound 234], the IC50 rises from 0.118 µM to 0.36 µM (3.1-fold).

Compared with `COc1ccccc1[C@H](O)CCC[C@@H](C)[C@H]1CC[C@H]2[C@@H]3CC[C@H]4[C@@H](O)[C@@H](O)CC[C@]4(C)[C@H]3CC[C@]12C` (single isomer, unassigned) [compound 325, 24-[S-hydroxy(2-methoxyphenyl)methyl]-5α-cholan-3β,4β-diol or 24-[R-hydroxy(2-methoxyphenyl)methyl]-5α-cholan-3β,4β-diol], `CCC(O)CCC[C@@H](C)[C@H]1CC[C@H]2[C@@H]3CC[C@H]4[C@@H](O)[C@@H](O)CC[C@]4(C)[C@H]3CC[C@]12C` (stereo partly drawn) [compound 241, 24-(1-hydroxypropyl)-5α-cholan-3β,4β-diol] is 3.6-fold higher in IC50: 0.09 µM for the first, 0.328 µM for the second.

Compared with `C[C@H](CCCC(C)(C)O)[C@H]1CC[C@H]2[C@@H]3CC[C@H]4C(=NO)[C@@H](O)CC[C@]4(C)[C@H]3CC[C@]12C` (stereo in doubt) [compound 273, [(1R,3aS,3bS,5aR,6E,7S,9aR,9bS,11aR)-7-hydroxy-1-[(2R)-6-hydroxy-6-methylheptan-2-yl]-9a,11a-dimethylhexadecahydro-1H-cyclopenta[1,2-a]phenanthren-6-ylidene]hydroxylamine], `C[C@H](CCCC(C)(C)O)[C@H]1CC[C@H]2[C@@H]3CC[C@H]4C(O)(C(F)(F)F)[C@@H](O)CC[C@]4(C)[C@H]3CC[C@]12C` (stereo partly drawn) [compound 246, 4-(trifluoromethyl)-5α-cholest-3β,4,25-triol] is 3.5-fold higher in IC50: 0.279 µM for the first, 0.988 µM for the second.

`C[C@H](CCCC(C)(C)O)[C@H]1CC[C@H]2[C@@H]3CCC4(O)C[C@@H](O)CC[C@]4(C)[C@H]3CC[C@]12C` (stereo partly shown) [compound 205, cholest-30,5,25-triol] and `C[C@H](CCCC(C)(C)O)[C@H]1CC[C@H]2[C@@H]3CC(=O)C4(O)C[C@@H](O)CC[C@]4(C)[C@H]3CC[C@]12C` (stereo partly shown) [compound 225, 3P,5,25-trihydroxycholest-6-one] are within 1.5-fold of each other in IC50: 0.817 µM for the first, 0.667 µM for the second.

`C[C@H](CCCC(C)(C)O)[C@H]1CC[C@H]2[C@@H]3C[C@@H](O)[C@H]4C[C@@H](O)CC[C@]4(C)[C@H]3CC[C@]12C` [compound 206, cholest-3β,6,25-triol] and `C[C@H](CCCC(C)(C)O)[C@H]1CC[C@H]2[C@@H]3C[C@H](O)[C@H]4C[C@@H](O)CC[C@]4(C)[C@H]3CC[C@]12C` [compound 240, cholest-30,6a,25-triol] are within 1.5-fold of each other in IC50: 0.464 µM for the first, 0.67 µM for the second.

`COC1C[C@H]2[C@@H]3CC[C@H]([C@H](C)CCCC(C)(C)O)[C@@]3(C)CC[C@@H]2[C@@]2(C)CC[C@H](O)CC12O` (stereo partly drawn) [compound 208, 6-methoxycholest-3β,5,25-triol] and `C[C@H](CCCC(C)(C)O)[C@H]1CC[C@H]2[C@@H]3CC(C#N)C4(O)C[C@@H](O)CC[C@]4(C)[C@H]3CC[C@]12C` (stereo partly shown) [compound 227] are within 1.5-fold of each other in IC50: 1.93 µM for the first, 1.33 µM for the second.

`C[C@H](CCCC(C)(C)O)[C@H]1CC[C@H]2[C@@H]3C(O)C[C@H]4C[C@@H](O)CC[C@]4(C)[C@H]3CC[C@]12C` (stereo partly drawn) [compound 210, 5α-cholest-3β,7,25-triol] and `C[C@H](CCCC(C)(C)O)[C@H]1CC[C@H]2[C@@H]3C(O)C[C@H]4[C@@H](O)[C@@H](O)CC[C@]4(C)[C@H]3CC[C@]12C` (stereo partly drawn) [compound 231, cholest-3β,4p,7,25-tetraol] are within 1.5-fold of each other in IC50: 0.837 µM for the first, 1.03 µM for the second.

`CCC(O)CCC[C@@H](C)[C@H]1CC[C@H]2C3CC[C@H]4C[C@@H](O)CC[C@]4(C)C3CC[C@]12C` (stereo partly drawn) [compound 211, (1R,3aS,5aS,7S,9aS,11aR)-1-[(2R)-6-hydroxyoctan-2-yl]-3a,9a,11a-trimethylhexadecahydro-1H-cyclopenta[1,2-α]phenanthren-7-ol] and `C[C@H](CCCC(O)C(F)(F)F)[C@H]1CC[C@H]2[C@@H]3CC[C@H]4C[C@@H](O)CC[C@]4(C)[C@H]3CC[C@]12C` (stereo partly drawn) [compound 218, 24-(2,2,2-trifluoro-1-hydroxyethyl)-5α-cholan-3β-ol] are within 1.5-fold of each other in IC50: 0.395 µM for the first, 0.296 µM for the second.

`C[C@H](CCCC(O)C1CC1)[C@H]1CC[C@H]2[C@@H]3CC[C@H]4C[C@@H](O)CC[C@]4(C)[C@H]3CC[C@]12C` (stereo partly drawn) [compound 217, 24-[cyclopropyl(hydroxy)methyl]-5α-cholan-3β-ol] and `C[C@H](CCCC(O)C1CC1)[C@H]1CC[C@H]2[C@@H]3CC[C@H]4[C@@H](O)[C@@H](O)CC[C@]4(C)[C@H]3CC[C@]12C` (stereo partly drawn) [compound 233, 24-[cyclopropyl(hydroxy)methyl]-5α-cholan-3β,4β-diol] are within 1.5-fold of each other in IC50: 0.329 µM for the first, 0.232 µM for the second.

Going from `C[C@H](CCN1CCc2ccccc2C1=O)[C@H]1CC[C@H]2[C@@H]3CC[C@H]4C[C@@H](O)CC[C@]4(C)[C@H]3CC[C@]12C` [compound 224] to `C[C@H](CCCC(O)c1ccccc1F)[C@H]1CC[C@H]2[C@@H]3CC[C@H]4C[C@@H](O)CC[C@]4(C)[C@H]3CC[C@]12C` (stereo partly drawn) [compound 251, 24-[(2-fluorophenyl)(hydroxy)methyl]-5α-cholan-3β-ol], the IC50 falls from greater than 10 µM to 0.321 µM. The second is the more potent here.

Going from `C[C@H](CCCC(C)(C)O)[C@H]1CC[C@H]2[C@@H]3CC(O)C4(F)C[C@@H](O)CC[C@]4(C)[C@H]3CC[C@]12C` (stereo partly shown) [compound 226] to `C[C@H](CCCC(C)(C)O)[C@H]1CC[C@H]2[C@@H]3CC(O)[C@H]4[C@@H](O)[C@@H](O)CC[C@]4(C)[C@H]3CC[C@]12C` (stereo partly drawn) [compound 244, cholest-3β,4p,6,25-tetraol], the IC50 falls from 46.6 µM to 3.76 µM (12-fold). The second is the more potent here.

Going from `C[C@H](CCCC(O)C(F)(F)F)[C@H]1CC[C@H]2[C@@H]3CC[C@H]4[C@@H](O)[C@@H](O)CC[C@]4(C)[C@H]3CC[C@]12C` (stereo partly drawn) [compound 232, 24-(2,2,2-trifluoro-1-hydroxyethyl)-5α-cholan-3β,4β-diol] to `C[C@H](CCCC1(O)CC1)[C@H]1CC[C@H]2[C@@H]3CC[C@H]4[C@@H](O)[C@@H](O)CC[C@]4(C)[C@H]3CC[C@]12C` [compound 245, (1R,3aS,5aR,6R,7S,9aR,11aR)-1-[(2R)-5-(hydroxycyclopropyl)pentan-2-yl]-9a,11a-dimethylhexadecahydro-1H-cyclopenta[1,2-a]phenanthrene-6,7-diol], the IC50 rises from 0.084 µM to 0.192 µM (2.3-fold). The first is the more potent here.

Going from `C[C@H](CCCC(C)(C)O)[C@H]1CC[C@H]2[C@@H]3CC(=O)[C@H]4[C@@H](O)[C@@H](O)CC[C@]4(C)[C@H]3CC[C@]12C` [compound 235, 25-hydroxy-4β-hydroxy-3β-hydroxy-5α-cholest-6-one] to `C[C@H](CCCC(C)(C)O)[C@H]1CC[C@H]2[C@@H]3C(=O)C[C@H]4[C@@H](O)[C@@H](O)CC[C@]4(C)[C@H]3CC[C@]12C` [compound 242, 25-hydroxy-4β-hydroxy-3β-hydroxy-5α-cholest-7-one], the IC50 falls from 10.8 µM to 0.556 µM (19-fold). The second is the more potent here.

`C[C@H](CCCC(C)(C)O)[C@H]1CC[C@@]2(C)[C@@H]3C(O)C[C@H]4C(C)(C)[C@@H](O)CC[C@]4(C)[C@H]3CC[C@]12C` (stereo partly drawn) [compound 237, (1R,3aS,5aR,7S,9aR,11aR)-1-[(2R)-6-hydroxy-6-methylheptan-2-yl]-3a,6,6,9a,11a-pentamethylhexadecahydro-1H-cyclopenta[1,2-α]phenanthrene-4,7-diol] and `C[C@H](CCCC(C)(C)O)[C@H]1CC[C@H]2[C@@H]3CC[C@H]4C(C)(O)[C@@H](O)CC[C@]4(C)[C@@]3(C)CC[C@]12C` (stereo partly drawn) [compound 254, 4-methyl-5α-cholest-3β,4,25-triol] are within 1.5-fold of each other in IC50: 7.04 µM for the first, 6.19 µM for the second.

`C[C@H](CCCC1(O)CC1)[C@H]1CC[C@H]2[C@@H]3CC[C@H]4C[C@@H](O)CC[C@]4(C)[C@H]3CC[C@]12C` [compound 253, 24-(hydroxycyclopropyl)-5α-cholan-3β-ol] was tested, and the IC50 was 0.187 µM.
